# Tested on: apyrase
# Assay: Screen for apyrase inhibitors (Method 1, in vitro phosphate-release absorbance assay)
# Type: biochemical
# Conditions: inhibitor conc at 1 mM stock, 1 hr room temperature, absorbance 630 nm; rounded average of two assay results
# Procedure, shortened: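 Phosphate-release colorimetric assay (Windsor method) in 60 mM Hepes, 3 mM MgCl2, 3 mM CaCl2, 3 mM ATP, pH 6.5, with compound or DMSO control added. Released phosphate developed with ammonium molybdate and ascorbic acid/TCA, then stopped with citrate/acetic acid.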
row,Compound,% Inhibition of Apyrase [%]
1,"COc1ccc(Br)c(C(=O)Nc2cccc(NS(=O)(=O)c3ccc(C)c(C)c3)c2)c1 [I-338, 2-bromo-N-(3-((3,4-dimethylphenyl)sulfonamido)phenyl)-5-methoxybenzamide]",69
2,"COc1cc(C(=O)Nc2cccc(NS(=O)(=O)c3ccc(C)c(C)c3)c2)cc2c1OCCO2 [I-339, N-(3-((3,4-dimethylphenyl)sulfonamido)phenyl)-8-methoxy-2,3-dihydrobenzo[b][1,4]dioxine-6-carboxamide]",69
3,"O=C(Nc1cccc(NS(=O)(=O)c2ccc(Cl)cc2)c1)c1ccc2[nH]nnc2c1 [I-340, N-(3-((4-chlorophenyl)sulfonamido)phenyl)-1H-benzo[d][1,2,3]triazole-5-carboxamide]",65
4,"COc1ccccc1C(=O)Nc1cccc(NS(=O)(=O)c2ccc(C)c(C)c2)c1 [I-341, N-(3-((3,4-dimethylphenyl)sulfonamido)phenyl)-2-methoxybenzamide]",64
5,"O=C(Nc1cccc(NS(=O)(=O)c2ccc(Cl)cc2)c1)c1ccc2[nH]cnc2c1 [I-342, N-(3-((4-chlorophenyl)sulfonamido)phenyl)-1H-benzo[d]imidazole-5-carboxamide]",63
6,"O=C(Nc1cccc(NS(=O)(=O)c2ccc(Cl)cc2)c1)c1ccc(F)cc1F [I-343, N-(3-((4-chlorophenyl)sulfonamido)phenyl)-2,4-difluorobenzamide]",59
7,"O=C(Nc1cccc(NS(=O)(=O)c2ccc(Cl)cc2)c1)c1ccccc1 [I-344, N-(3-((4-chlorophenyl)sulfonamido)phenyl)benzamide]",56
8,"Cc1cccc(C(=O)Nc2cccc(NS(=O)(=O)c3ccccc3)c2)c1[N+](=O)[O-] [I-345, 3-methyl-2-nitro-N-(3-(phenylsulfonamido)phenyl)benzamide]",53
9,"Cc1ccc(S(C)(=O)=O)cc1C(=O)Nc1cccc(NS(=O)(=O)c2ccc(Cl)cc2)c1 [I-346, N-(3-((4-chlorophenyl)sulfonamido)phenyl)-2-methyl-5-(methylsulfonyl)benzamide]",53
10,"Cc1ccc(C(=O)Nc2cccc(NS(=O)(=O)c3ccccc3)c2)cc1[N+](=O)[O-] [I-347, 4-methyl-3-nitro-N-(3-(phenylsulfonamido)phenyl)benzamide]",52
11,"CCCOc1ccc(C(=O)Nc2cccc(NS(=O)(=O)c3ccc(C)c(C)c3)c2)cc1OC [I-348, N-(3-((3,4-dimethylphenyl)sulfonamido)phenyl)-3-methoxy-4-propoxybenzamide]",48
12,"COc1cc(Cl)c(C)cc1NC(=O)c1ccccc1S(=O)(=O)N(C)c1ccccc1 [I-350, N-(4-chloro-2-methoxy-5-methylphenyl)-2-(N-methyl-N-phenylsulfamoyl)benzamide]",66
13,"CN(c1ccccc1)S(=O)(=O)c1ccccc1C(=O)Nc1ccc2c(c1)OCO2 [I-351, N-(benzo[d][1,3]dioxol-5-yl)-2-(N-methyl-N-phenylsulfamoyl)benzamide]",53
14,"C#Cc1cccc(NC(=O)c2ccccc2S(=O)(=O)N(C)c2ccccc2)c1 [I-352, N-(3-ethynylphenyl)-2-(N-methyl-N-phenylsulfamoyl)benzamide]",48
15,"O=C(Nc1ccc(SC(F)F)cc1)c1ccccc1S(=O)(=O)N1CCCCC1 [I-353, N-(4-((difluoromethyl)thio)phenyl)-2-(piperidin-1-ylsulfonyl)benzamide]",44
16,"O=C(Nc1ccc(OC(F)F)c(Cl)c1)c1ccccc1S(=O)(=O)N1CCCCC1 [I-354, N-(3-chloro-4-(difluoromethoxy)phenyl)-2-(piperidin-1-ylsulfonyl)benzamide]",43
17,"CN(c1ccccc1)S(=O)(=O)c1ccccc1C(=O)Nc1ccc(Cl)cc1F [I-355, N-(4-chloro-2-fluorophenyl)-2-(N-methyl-N-phenylsulfamoyl)benzamide]",43
18,"O=C(Nc1cccc(C(F)(F)F)c1)c1ccccc1S(=O)(=O)N1CCCCC1 [I-356, 2-(piperidin-1-ylsulfonyl)-N-(3-(trifluoromethyl)phenyl)benzamide]",10
19,"O=C(Nc1ccc(S(=O)(=O)N2CCCC2)cc1)c1ccccc1NS(=O)(=O)c1cccc(C(F)(F)F)c1 [I-373, N-(4-(pyrrolidin-1-ylsulfonyl)phenyl)-2-((3-(trifluoromethyl)phenyl)sulfonamido) benzamide]",71
20,"O=C(Nc1ccc(F)cc1)c1ccccc1NS(=O)(=O)c1cccc(C(F)(F)F)c1 [I-374, N-(4-fluorophenyl)-2-((3-(trifluoromethyl)phenyl)sulfonamido) benzamide]",48
21,"O=C(c1ccccc1NS(=O)(=O)c1cccc(C(F)(F)F)c1)N1CCc2ccccc21 [I-375, N-(2-(indoline-1-carbonyl)phenyl)-3-(trifluoromethyl)benzenesulfonamide]",43
22,"O=C(Nc1ccc(OC(F)F)cc1)c1ccccc1NS(=O)(=O)c1ccc(F)cc1 [I-376, N-(4-(difluoromethoxy)phenyl)-2-((4-fluorophenyl)sulfonamido)benzamide]",35

row,Compound,% Inhibition of Apyrase [%]
1,"O=C(Nc1ccccc1)c1ccccc1NS(=O)(=O)c1cccc(C(F)(F)F)c1 [I-377, N-phenyl-2-((3-(trifluoromethyl)phenyl)sulfonamido) benzamide]",20
2,"O=C(Nc1ccc(F)cc1Cl)c1ccc(S(=O)(=O)Nc2ccc(SC(F)F)cc2)cc1 [I-380, N-(2-chloro-4-fluorophenyl)-4-(N-(4-((difluoromethyl)thio)phenyl)sulfamoyl) benzamide]",73
3,"CC1Cc2ccccc2N1C(=O)c1ccc(S(=O)(=O)Nc2ccccc2)cc1 (stereo not shown) [I-381, 4-(2-methylindoline-1-carbonyl)-N-phenylbenzenesulfonamide]",72
4,"COc1ccc([N+](=O)[O-])cc1NS(=O)(=O)c1ccc(C(=O)Nc2ccc(Cl)cc2)cc1 [I-382, N-(4-chlorophenyl)-4-(N-(2-methoxy-5-nitrophenyl)sulfamoyl)benzamide]",69
5,"O=C(Nc1ccccc1OC(F)F)c1ccc(S(=O)(=O)Nc2ccccc2F)cc1 [I-383, N-(2-(difluoromethoxy)phenyl)-4-(N-(2-fluorophenyl)sulfamoyl)benzamide]",66
6,"Cc1ccc(NS(=O)(=O)c2ccc(C(=O)Nc3cccc(C#N)c3)cc2)cc1C [I-384, N-(3-cyanophenyl)-4-(N-(3,4-dimethylphenyl)sulfamoyl)benzamide]",66
7,"O=C(Nc1ccc(Cl)c(S(=O)(=O)N2CCOCC2)c1)c1ccc(S(=O)(=O)Nc2cccc(C(F)(F)F)c2)cc1 [I-386, N-(4-chloro-3-(morpholinosulfonyl)phenyl)-4-(N-(3-(trifluoromethyl)phenyl)sulfamoyl)benzamide]",65
8,"O=C(Nc1ccc2[nH]nnc2c1)c1ccc(S(=O)(=O)Nc2ccc(Cl)cc2)cc1 [I-389, N-(1H-benzo[d][1,2,3]triazol-5-yl)-4-(N-(4-chlorophenyl)sulfamoyl)benzamide]",63
9,"Cc1ccc(NC(=O)c2ccc(S(=O)(=O)Nc3ccc(Cl)cc3)cc2)cc1S(=O)(=O)N(C)C [I-390, 4-(N-(4-chlorophenyl)sulfamoyl)-N-(3-(N,N-dimethylsulfamoyl)-4-methylphenyl)benzamide]",62
10,"Cc1ccc(NS(=O)(=O)c2ccc(C(=O)N3c4ccccc4CC3C)cc2)cc1 (stereo not shown) [I-391, 4-(2-methylindoline-1-carbonyl)-N-(p-tolyl)benzenesulfonamide]",62
11,"O=C(Nc1cccc(S(=O)(=O)N2CCOCC2)c1)c1ccc(S(=O)(=O)Nc2ccc(Cl)cc2)cc1 [I-393, 4-(N-(4-chlorophenyl)sulfamoyl)-N-(3-(morpholinosulfonyl)phenyl)benzamide]",57
12,"Cc1ccc(NS(=O)(=O)c2ccc(C(=O)Nc3ccccc3C)cc2)cc1 [I-394, N-(o-tolyl)-4-(N-(p-tolyl)sulfamoyl)benzamide]",54
13,"CCc1cccc(NC(=O)c2ccc(S(=O)(=O)Nc3ccc(Cl)cc3)cc2)c1 [I-395, 4-(N-(4-chlorophenyl)sulfamoyl)-N-(3-ethylphenyl)benzamide]",51
14,"Cc1ccc(NS(=O)(=O)c2ccc(C(=O)Nc3ccc(Cl)cc3C)cc2)cc1 [I-396, N-(4-chloro-2-methylphenyl)-4-(N-(p-tolyl)sulfamoyl)benzamide]",50
15,"O=C(c1ccc(S(=O)(=O)Nc2ccccc2)cc1)N1CCCc2ccccc21 [I-397, N-phenyl-4-(1,2,3,4-tetrahydroquinoline-1-carbonyl)benzenesulfonamide]",45
16,"CC(=O)c1cccc(NC(=O)c2ccc(S(=O)(=O)Nc3ccc(C)cc3)cc2)c1 [I-398, N-(3-acetylphenyl)-4-(N-(p-tolyl)sulfamoyl)benzamide]",44
17,"COc1ccc(NC(=O)c2ccc(S(=O)(=O)Nc3cccc(C(F)(F)F)c3)cc2)c(OC)c1 [I-399, N-(2,4-dimethoxyphenyl)-4-(N-(3-(trifluoromethyl)phenyl)sulfamoyl)benzamide]",43
18,"O=C(Nc1ccc(F)cc1)c1ccc(S(=O)(=O)Nc2ccccc2Cl)cc1 [I-400, 4-(N-(2-chlorophenyl)sulfamoyl)-N-(4-fluorophenyl)benzamide]",41
19,"O=C(Nc1ccc2c(c1)OCO2)c1ccc(S(=O)(=O)Nc2ccccc2F)cc1 [I-401, N-(benzo[d][1,3]dioxol-5-yl)-4-(N-(2-fluorophenyl)sulfamoyl)benzamide]",41
20,"COc1ccc(NC(=O)c2ccc(S(=O)(=O)Nc3ccccc3)cc2)cc1 [I-402, N-(4-methoxyphenyl)-4-(N-phenylsulfamoyl)benzamide]",40
21,"COc1ccc(NC(=O)c2ccc(S(=O)(=O)Nc3cccc(C(F)(F)F)c3)cc2)cc1OC [I-403, N-(3,4-dimethoxyphenyl)-4-(N-(3-(trifluoromethyl)phenyl)sulfamoyl)benzamide]",38
